Measured values: US20250353848A1, “HETEROCYCLIC PAD4 INHIBITORS” (Celgene Corporation, priority 2022, published 2025)

Legend:
hPAD4 enzyme [1] = target: T1, hPAD4 enzyme (Homo sapiens, UniProt Q9UM07); test: RFMS Assay 2 (rapid-fire mass spectrum PAD4 inhibition assay, peptide substrate); type: biochemical; conditions: 35 nM recombinant human PAD4, substrate TSTGGRQGSHH, room temperature for 30 minutes; read-out: human PAD4 (hPAD4) IC50, RFMS Assay 2
Description: Stock compounds were dissolved and stored in 100% DMSO. Compound solutions were prepared via serial dilution at 3-fold intervals in DMSO with top compound concentration at […] in each assay. 0.25 μl of compound solution was transferred from the compound plate to the assay plate by using an acoustic dispenser. Final assay conditions: • Total reaction volume: 25 μl • Assay buffer: […] pH 7.4, 200 mM NaCl, 2 mM CaCl2, 5 mM DTT • 35 nM recombinant human PAD4 • 500 µM TSTGGRQGSHH (SEQ ID NO: 1) • 1.2% DMSO • Stop solution: 10% formic acid
Reaction mixtures were incubated at room temperature for 30 minutes. 10 μl each of the reaction mixtures was then mixed with 40 μl of 10% formic acid in a microtiter plate. The plate was frozen at −80° C. before shipping out on dry ice for RapidFire mass spectroscopy analysis.
Thawed samples were loaded onto the Rapid Fire 300 system (Agilent) wherein they were first sipped for 250 ms and then loaded onto a Agilent “C” (C18) cartridge using a mobile phase of water containing 0.09% formic acid/0.01% trifluoroacetic acid for 3000 ms desalting flowing at a rate of 1.5 ml/min. Once the samples were loaded and washed, a mobile phase of acetonitrile containing 0.09% formic acid/0.01% trifluoroacetic acid was used to elute the samples directly onto a Sciex API4000 triple quadrupole mass spectrometer for 3000 ms at a flow rate of 1.25 ml/min.
MRM transitions for substrate and product were monitored in positive ESI mode at m/z=562.3/969.7 and m/z=562.8/541.3 respectively. The dwell time for each transition was set at 100 ms, and the ESI voltage was used at 5500 with a source temperature of 650° C. Extracted ion peaks for each transition were integrated using the Rapid Fire Integrator software.

hPAD4 enzyme [2] = target: T1, hPAD4 enzyme; test: RFMS Assay 1 (rapid-fire mass spectrum PAD4 inhibition assay, BAEE substrate); type: biochemical; conditions: 5 nM hPAD4 enzyme, 250 μM BAEE, 30 mins compound and enzyme preincubation at 37° C., 90 min enzyme/substrate reaction
In short: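 Human PAD4 (5 nM) preincubated 30 min at 37 °C with compound (top 50 μM, 0.5% DMSO), then 250 μM BAEE for 90 min at 37 °C in pH 7.5 HEPES with 50 μM calcium, 5 μM TPEN, 1 mM DTT. Product derivatized with phenyl glyoxal; citrulline product quantified by RapidFire MS/MS MRM, normalized to internal standard.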

T1 sequence (Q9UM07 whole entry): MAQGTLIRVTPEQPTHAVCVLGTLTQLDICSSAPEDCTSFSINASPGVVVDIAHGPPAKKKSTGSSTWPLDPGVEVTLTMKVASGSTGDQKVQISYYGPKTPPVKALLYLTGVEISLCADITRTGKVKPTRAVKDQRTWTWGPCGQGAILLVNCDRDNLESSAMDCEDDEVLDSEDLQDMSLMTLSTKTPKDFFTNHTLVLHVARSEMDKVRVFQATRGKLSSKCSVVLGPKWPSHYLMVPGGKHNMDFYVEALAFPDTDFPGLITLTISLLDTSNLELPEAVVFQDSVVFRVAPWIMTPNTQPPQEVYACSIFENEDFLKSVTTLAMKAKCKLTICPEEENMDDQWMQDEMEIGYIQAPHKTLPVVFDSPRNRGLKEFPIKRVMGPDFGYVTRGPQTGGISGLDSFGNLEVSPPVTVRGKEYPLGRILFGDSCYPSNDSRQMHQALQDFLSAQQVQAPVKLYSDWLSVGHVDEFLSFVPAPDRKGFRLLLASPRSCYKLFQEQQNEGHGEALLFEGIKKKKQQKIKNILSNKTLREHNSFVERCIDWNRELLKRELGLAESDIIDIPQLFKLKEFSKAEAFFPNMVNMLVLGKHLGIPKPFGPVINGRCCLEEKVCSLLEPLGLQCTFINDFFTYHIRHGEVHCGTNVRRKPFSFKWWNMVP

For C[C@@H](COc1cccc2cc(-c3nc4cc5c(nc4n3C)CCN(C[C@H](N)CF)C5=O)n(CC3CC3)c12)n1cnc(F)c1 [Example 86, 7-((S)-2-amino-3-fluoropropyl)-2-(1-(cyclopropylmethyl)-7-((S)-2-(4-fluoro-1H-imidazol-1-yl)propoxy)-1H-indol-2-yl)-3-methyl-3,5,6,7-tetrahydro-8H-imidazo[4,5-b][1,6]naphthyridin-8-one], the IC50 (hPAD4 enzyme [1]) was 0.011 to 0.1 µM and the IC50 (hPAD4 enzyme [2]) was at most 0.01 µM.
Compound Cn1c(-c2cc3ccnc(OCCn4ccnc4)c3n2CC2CC2)nc2cc3c(nc21)CCN(C[C@H](N)CF)C3=O [Example 84, (S)-2-(7-(2-(1H-imidazol-1-yl)ethoxy)-1-(cyclopropylmethyl)-1H-pyrrolo[2,3-c]pyridin-2-yl)-7-(2-amino-3-fluoropropyl)-3-methyl-3,5,6,7-tetrahydro-8H-imidazo[4,5-b][1,6]naphthyridin-8-one] has an IC50 (hPAD4 enzyme [1]) of 0.011 to 0.1 µM and an IC50 (hPAD4 enzyme [2]) of at most 0.01 µM.
Compound COc1cccc2cc(-c3nc4cc5c(nc4n3C)CCN(C[C@H](N)CF)C5=O)n(Cc3nc(C)cs3)c12 [Example 14, (S)-7-(2-amino-3-fluoropropyl)-2-(7-methoxy-1-((4-methylthiazol-2-yl)methyl)-1H-indol-2-yl)-3-methyl-3,5,6,7-tetrahydro-8H-imidazo[4,5-b][1,6]naphthyridin-8-one] has an IC50 (hPAD4 enzyme [1]) of 0.501 to 1 µM and an IC50 (hPAD4 enzyme [2]) of 0.011 to 0.1 µM.
For Cn1c(-c2cc3ccc(C(C)(C)O)nc3n2CC2CC2)nc2cc3c(nc21)CCN(C[C@H](N)CF)C3=O [Example 33, (S)-7-(2-amino-3-fluoropropyl)-2-(1-(cyclopropylmethyl)-6-(2-hydroxypropan-2-yl)-1H-pyrrolo[2,3-b]pyridin-2-yl)-3-methyl-3,5,6,7-tetrahydro-8H-imidazo[4,5-b][1,6]naphthyridin-8-one], the IC50 (hPAD4 enzyme [1]) was 0.501 to 1 µM and the IC50 (hPAD4 enzyme [2]) was 0.011 to 0.1 µM.
For COc1cccc2cc(-c3nc4cc5c(nc4n3C)CCN(C[C@H](N)CF)C5=O)n(CC3OCCO3)c12 [Example 16, (S)-2-(1-((1,3-dioxolan-2-yl)methyl)-7-methoxy-1H-indol-2-yl)-7-(2-amino-3-fluoropropyl)-3-methyl-3,5,6,7-tetrahydro-8H-imidazo[4,5-b][1,6]naphthyridin-8-one], the IC50 (hPAD4 enzyme [1]) was 0.101 to 0.5 µM and the IC50 (hPAD4 enzyme [2]) was 0.101 to 0.5 µM.
With COc1cccc2cc(-c3nc4cc5c(nc4n3C)CCN(C[C@H](N)CF)C5=O)n(CC3(F)CC3)c12 [Example 15, (S)-7-(2-amino-3-fluoropropyl)-2-(1-((1-fluorocyclopropyl)methyl)-7-methoxy-1H-indol-2-yl)-3-methyl-3,5,6,7-tetrahydro-8H-imidazo[4,5-b][1,6]naphthyridin-8-one] the IC50 (hPAD4 enzyme [1]) was 0.101 to 0.5 µM and the IC50 (hPAD4 enzyme [2]) was 0.011 to 0.1 µM.
With CC(Cc1cnco1)Oc1cc(F)cc2cc(-c3nc4cc5c(nc4n3C)CCN(C[C@H](N)CF)C5=O)n(CC3CC3)c12 (single isomer, unassigned) [Example 65a] the IC50 (hPAD4 enzyme [1]) was 0.101 to 0.5 µM and the IC50 (hPAD4 enzyme [2]) was at most 0.01 µM.
CC(Oc1cccc2cc(-c3nc4cc5c(nc4n3C)CCN(C[C@H](N)CF)C5=O)n(CC3CC3)c12)c1cc[nH]n1 (single isomer, unassigned) [Example 49b] was tested, and the IC50 (hPAD4 enzyme [1]) was 0.101 to 0.5 µM and the IC50 (hPAD4 enzyme [2]) was 0.101 to 0.5 µM.
CC(Oc1cccc2cc(-c3nc4cc5c(nc4n3C)CCN(C[C@H](N)CF)C5=O)n(CC3CC3)c12)c1cc[nH]n1 (single isomer, unassigned) [Example 49a] gave an IC50 (hPAD4 enzyme [1]) of 0.011 to 0.1 µM and an IC50 (hPAD4 enzyme [2]) of 0.011 to 0.1 µM.
Compound Cn1c(-c2cc3ccccc3n2CC2CC2)nc2cc3c(nc21)CCN(C[C@H](N)CF)C3=O [Example 20, (S)-7-(2-amino-3-fluoropropyl)-2-(1-(cyclopropylmethyl)-1H-indol-2-yl)-3-methyl-3,5,6,7-tetrahydro-8H-imidazo[4,5-b][1,6]naphthyridin-8-one] has an IC50 (hPAD4 enzyme [1]) of 0.501 to 1 µM and an IC50 (hPAD4 enzyme [2]) of over 1 µM.
In the case of C[C@H](COc1cccc2cc(-c3nc4cc5c(nc4n3C)CCN(C[C@H](N)CF)C5=O)n(CC3CC3)c12)n1cnc(F)c1 [Example 85, 7-((S)-2-amino-3-fluoropropyl)-2-(1-(cyclopropylmethyl)-7-((R)-2-(4-fluoro-1H-imidazol-1-yl)propoxy)-1H-indol-2-yl)-3-methyl-3,5,6,7-tetrahydro-8H-imidazo[4,5-b][1,6]naphthyridin-8-one], the IC50 (hPAD4 enzyme [1]) is reported as 0.011 to 0.1 µM and the IC50 (hPAD4 enzyme [2]) is reported as at most 0.01 µM.
Compound Cc1cncn1CCOc1cccc2cc(-c3nc4cc5c(nc4n3C)CCN(C[C@H](N)CF)C5=O)n(CC3CC3)c12 [Example 71, (S)-7-(2-amino-3-fluoropropyl)-2-(1-(cyclopropylmethyl)-7-(2-(5-methyl-1H-imidazol-1-yl)ethoxy)-1H-indol-2-yl)-3-methyl-3,5,6,7-tetrahydro-8H-imidazo[4,5-b][1,6]naphthyridin-8-one] has an IC50 (hPAD4 enzyme [1]) of 0.101 to 0.5 µM and an IC50 (hPAD4 enzyme [2]) of 0.011 to 0.1 µM.
Cc1ncoc1CCOc1cccc2cc(-c3nc4cc5c(nc4n3C)CCN(C[C@H](N)CF)C5=O)n(CC3CC3)c12 [Example 48, (S)-7-(2-amino-3-fluoropropyl)-2-(1-(cyclopropylmethyl)-7-(2-(4-methyloxazol-5-yl)ethoxy)-1H-indol-2-yl)-3-methyl-3,5,6,7-tetrahydro-8H-imidazo[4,5-b][1,6]naphthyridin-8-one] gave an IC50 (hPAD4 enzyme [1]) of 0.101 to 0.5 µM and an IC50 (hPAD4 enzyme [2]) of 0.011 to 0.1 µM.
Cn1c(-c2cc3cccc(OC(F)Cn4ccnc4)c3n2CC2CC2)nc2cc3c(nc21)CCN(C[C@H](N)CF)C3=O (single isomer, unassigned) [Example 74b] gave an IC50 (hPAD4 enzyme [1]) of 0.011 to 0.1 µM and an IC50 (hPAD4 enzyme [2]) of at most 0.01 µM.
Work on COc1cccc2cc(-c3nc4cc5c(nc4n3C)CCN(C[C@H](N)CF)C5=O)n(Cc3ncco3)c12 [Example 8, (S)-7-(2-amino-3-fluoropropyl)-2-(7-methoxy-1-(oxazol-2-ylmethyl)-1H-indol-2-yl)-3-methyl-3,5,6,7-tetrahydro-8H-imidazo[4,5-b][1,6]naphthyridin-8-one] yielded an IC50 (hPAD4 enzyme [1]) of 0.501 to 1 µM and an IC50 (hPAD4 enzyme [2]) of 0.501 to 1 µM.
Compound COc1cccc2cc(-c3nc4cc5c(nc4n3C)CCN(C[C@H](N)CF)C5=O)n(CC3CC3)c12 [Example 1, (S)-7-(2-amino-3-fluoropropyl)-2-(1-(cyclopropylmethyl)-7-methoxy-1H-indol-2-yl)-3-methyl-3,5,6,7-tetrahydro-8H-imidazo[4,5-b][1,6]naphthyridin-8-one] has an IC50 (hPAD4 enzyme [1]) of 0.501 to 1 µM and an IC50 (hPAD4 enzyme [2]) of 0.101 to 0.5 µM.
With C[C@H](Cn1ccnc1)Oc1cccc2cc(-c3nc4cc5c(nc4n3C)CCN(C[C@H](N)CF)C5=O)n(CC3CC3)c12 [Example 62, 2-(7-(((R)-1-(1H-imidazol-1-yl)propan-2-yl)oxy)-1-(cyclopropylmethyl)-1H-indol-2-yl)-7-((S)-2-amino-3-fluoropropyl)-3-methyl-3,5,6,7-tetrahydro-8H-imidazo[4,5-b][1,6]naphthyridin-8-one] the IC50 (hPAD4 enzyme [1]) was 0.101 to 0.5 µM and the IC50 (hPAD4 enzyme [2]) was 0.011 to 0.1 µM.
COCCn1c(-c2nc3cc4c(nc3n2C)CCN(C[C@H](N)CF)C4=O)cc2cccc(OC)c21 [Example 2, (S)-7-(2-amino-3-fluoropropyl)-2-(7-methoxy-1-(2-methoxyethyl)-1H-indol-2-yl)-3-methyl-3,5,6,7-tetrahydro-8H-imidazo[4,5-b][1,6]naphthyridin-8-one] was tested, and the IC50 (hPAD4 enzyme [1]) was over 1 µM and the IC50 (hPAD4 enzyme [2]) was over 1 µM.
Cn1c(-c2cc3cccc(OC(F)Cn4ccnc4)c3n2CC2CC2)nc2cc3c(nc21)CCN(C[C@H](N)CF)C3=O (single isomer, unassigned) [Example 74a] gave an IC50 (hPAD4 enzyme [1]) of 0.011 to 0.1 µM and an IC50 (hPAD4 enzyme [2]) of at most 0.01 µM.
Work on COc1cccc2cc(-c3nc4cc5c(nc4n3C)CCN(C[C@H]3COCCN3)C5=O)n(CC3CC3)c12 [Example 27, (S)-2-(1-(cyclopropylmethyl)-7-methoxy-1H-indol-2-yl)-3-methyl-7-(morpholin-3-ylmethyl)-3,5,6,7-tetrahydro-8H-imidazo[4,5-b][1,6]naphthyridin-8-one] yielded an IC50 (hPAD4 enzyme [1]) of over 1 µM and an IC50 (hPAD4 enzyme [2]) of 0.501 to 1 µM.
